Assay results: patent US9683018B2, “Disulfide cyclic polypeptides for the treatment of heart failure” (priority 2013, dated 2017)
Bridge positions count the residues as written; N and C are the ends. Square brackets hold non-standard residues; d marks the D form. Peptide text beside a SMILES is read from it. pGlu = O=C1CC[C@@H](C(=O)O)N1; d(hCys) = N[C@H](CCS)C(=O)O; dNle = CCCC[C@@H](N)C(=O)O; hCys = N[C@@H](CCS)C(=O)O; Nle = CCCC[C@H](N)C(=O)O; Aib = CC(C)(N)C(=O)O; Inp = O=C(O)C1CCNCC1

Experiments:
hAPJ = biological target: T1, hAPJ (Homo sapiens, UniProt P35414); assay: hAPJ Calcium Flux Assay; format: cell-based; details: Chem-5 APJ stable cells, FLIPR calcium flux; read-out: hAPJ Ca2+ Flux EC50
T1 sequence (P35414 1-380): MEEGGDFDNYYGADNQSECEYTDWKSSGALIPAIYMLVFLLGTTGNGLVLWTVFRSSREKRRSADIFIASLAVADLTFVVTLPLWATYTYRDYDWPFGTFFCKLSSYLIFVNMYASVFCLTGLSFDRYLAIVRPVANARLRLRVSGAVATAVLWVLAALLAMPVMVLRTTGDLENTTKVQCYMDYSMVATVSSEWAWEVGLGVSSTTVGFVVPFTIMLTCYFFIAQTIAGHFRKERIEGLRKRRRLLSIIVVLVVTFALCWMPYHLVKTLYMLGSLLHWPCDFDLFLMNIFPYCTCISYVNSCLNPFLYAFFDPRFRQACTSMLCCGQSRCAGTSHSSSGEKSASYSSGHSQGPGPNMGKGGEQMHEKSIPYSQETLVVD
Description: Chem-5 APJ stable cells (Millipore # HTS068C) were plated in 384-well format with 10,000 cells/well in 25 ul growth media, then grown 24 hours in a 37° C. tissue culture incubator. One hour before the assay, 25 ul/well FLIPR Calcium 4 dye (Molecular Devices R8142) with 2.5 mM probenecid was added, and cells were incubated one hour in a 37° C. tissue culture incubator. Peptides were solubilized in HBSS, HEPES & 0.1% BSA buffer, and serially-diluted 10-fold, from 50 uM to 5 pM, in triplicate. FLIPR Tetra was used to add peptide to the cells with dye (1:5, for final peptide concentrations ranging from 10 uM to 1 pM). FLIPR dye inside the cells emitted fluorescence after binding to calcium, while fluorescence from outside the cells was masked. Fluorescence was measured using 470-495 excitation and 515-575 emission wavelengths on the FLIPR Tetra. Readings were done for 3 minutes total, beginning 10 seconds before the peptide addition. Maximum-minimum values were calculated and plotted for each peptide concentration, and GraphPad prism software was used to calculate EC50 values at the curve inflection points, for calcium flux stimulation by peptides.

in vitro = details: rat, plasma, Surrogate activity-based Plasma stability t½
Description: The calcium flux protocol described above was followed, with the following changes. The peptides were also incubated with 5% rat plasma (Bioreclamation # [sequence]-M, Na Heparin-treated). Readings were taken at time points t0 and t24 hrs, after incubation in a 37° C. tissue culture incubator. Peptide plasma half-life in minutes was estimated by calculating the following:
2) Calculate slope of value above and

| SMILES | EC50 (hAPJ) [nM] | half-life (in vitro) [h] |
| --- | --- | --- |
| CCCC[C@H]1NC(=O)[C@@H]2CCCN2C(=O)CNC(=O)[C@H](CCCCN)NC(=O)[C@H](Cc2c[nH]cn2)NC(=O)[C@H](CO)NC(=O)[C@@H](NC(=O)[C@H](CCCNC(=N)N)NC(=O)[C@@H]2CCCN2C(=O)[C@H](CCCNC(=N)N)NC(=O)[C@@H]2CCC(=O)N2)CCSSC[C@@H](C(=O)N[C@H](Cc2ccc(O)cc2)C(=O)O)NC1=O [Example 2, pE-R-P-R-hC*-S-H-K-G-P-(D-Nle)-C*-y-OH] ([pGlu]RPR[hCys]SHKGP[dNle]C[dY]-OH; disulfide 5-12) | 154 | 0.867 |
| CCCC[C@@H]1NC(=O)[C@@H]2CCCN2C(=O)CNC(=O)[C@H](CCCCN)NC(=O)[C@@H](NC(=O)[C@H](CO)NC(=O)[C@H](CC(C)C)NC(=O)[C@H](CCCNC(=N)N)NC(=O)[C@@H]2CCCN2C(=O)[C@H](CCCNC(=N)N)NC(=O)[C@@H]2CCC(=O)N2)CSSCC[C@H](C(=O)N[C@@H](Cc2ccccc2)C(=O)O)NC1=O [Example 4, pE-R-P-R-L-S-C*-K-G-P-Nle-(D-hC)*-F-OH] ([pGlu]RPRLSCKGP[Nle][d(hCys)]F-OH; disulfide 7-12) | 406 | 0.403 |
| CCCC[C@@H]1NC(=O)[C@@H]2CCCN2C(=O)CNC(=O)[C@H](CCCCN)NC(=O)[C@H](NC(=O)[C@H](CO)NC(=O)[C@H](CC(C)C)NC(=O)[C@H](CCCNC(=N)N)NC(=O)[C@@H]2CCCN2C(=O)[C@H](CCCNC(=N)N)NC(=O)[C@@H]2CCC(=O)N2)CSSCC[C@H](C(=O)N[C@@H](Cc2ccccc2)C(=O)O)NC1=O [Example 5, pE-R-P-R-L-S-c*-K-G-P-Nle-(D-hC)*-F-OH] ([pGlu]RPRLS[dC]KGP[Nle][d(hCys)]F-OH; disulfide 7-12) | 981 | 23.9 |
| CCCC[C@@H]1NC(=O)[C@@H]2CCCN2C(=O)CNC(=O)[C@H](CCCCN)NC(=O)[C@@H](NC(=O)[C@H](CO)NC(=O)[C@H](CC(C)C)NC(=O)[C@H](CCCNC(=N)N)NC(=O)[C@@H]2CCCN2C(=O)[C@H](CCCNC(=N)N)NC(=O)[C@@H]2CCC(=O)N2)CCSSCC[C@H](C(=O)N[C@@H](Cc2ccccc2)C(=O)O)NC1=O [Example 6, pE-R-P-R-L-S-hC*-K-G-P-Nle-(D-hC)*-F-OH] ([pGlu]RPRLS[hCys]KGP[Nle][d(hCys)]F-OH; disulfide 7-12) | 92.8 | 0.208 |
| CCCC[C@@H]1NC(=O)[C@@H]2CCCN2C(=O)CNC(=O)[C@H](CCCCN)NC(=O)[C@H](NC(=O)[C@H](CO)NC(=O)[C@H](CC(C)C)NC(=O)[C@H](CCCNC(=N)N)NC(=O)[C@@H]2CCCN2C(=O)[C@H](CCCNC(=N)N)NC(=O)[C@@H]2CCC(=O)N2)CCSSCC[C@H](C(=O)N[C@@H](Cc2ccccc2)C(=O)O)NC1=O [Example 7, pE-R-P-R-L-S-(D-hC)*-K-G-P-Nle-(D-hC)*-F-OH] ([pGlu]RPRLS[d(hCys)]KGP[Nle][d(hCys)]F-OH; disulfide 7-12) | 781 | 2.01 |
| CCCC[C@@H]1NC(=O)[C@@H]2CCCN2C(=O)CNC(=O)[C@H](CCCCN)NC(=O)[C@H](NC(=O)[C@H](CO)NC(=O)[C@H](CC(C)C)NC(=O)[C@H](CCCNC(=N)N)NC(=O)[C@@H]2CCCN2C(=O)[C@H](CCCNC(=N)N)NC(=O)[C@@H]2CCC(=O)N2)CCSSC[C@@H](C(=O)N[C@@H](Cc2ccccc2)C(=O)O)NC1=O [Example 8, pE-R-P-R-L-S-(D-hC)*-K-G-P-Nle-C*-F-OH] ([pGlu]RPRLS[d(hCys)]KGP[Nle]CF-OH; disulfide 7-12) | 613 | 1.29 |
| CCCC[C@@H]1NC(=O)[C@@H]2CCCN2C(=O)CNC(=O)[C@H](CCCCN)NC(=O)[C@H](NC(=O)[C@H](CO)NC(=O)[C@H](CC(C)C)NC(=O)[C@H](CCCNC(=N)N)NC(=O)[C@@H]2CCCN2C(=O)[C@H](CCCNC(=N)N)NC(=O)[C@@H]2CCC(=O)N2)CCSSCC[C@@H](C(=O)N[C@@H](Cc2ccccc2)C(=O)O)NC1=O [Example 9, pE-R-P-R-L-S-(D-hC)*-K-G-P-Nle-hC*-F-OH] ([pGlu]RPRLS[d(hCys)]KGP[Nle][hCys]F-OH; disulfide 7-12) | 1030 | 0.95 |
| CCCC[C@@H]1NC(=O)[C@@H]2CCCN2C(=O)CNC(=O)[C@H](CCCCN)NC(=O)[C@H](NC(=O)[C@H](CO)NC(=O)[C@H](CC(C)C)NC(=O)[C@H](CCCNC(=N)N)NC(=O)[C@@H]2CCCN2C(=O)[C@H](CCCNC(=N)N)NC(=O)[C@@H]2CCC(=O)N2)CCSSC[C@@H](C(=O)O)NC1=O [Example 10, pE-R-P-R-L-S-(D-hC)*-K-G-P-Nle-C*-OH] ([pGlu]RPRLS[d(hCys)]KGP[Nle]C-OH; disulfide 7-12) | 976 | 1.64 |
| CCCC[C@@H]1NC(=O)[C@@H]2CCCN2C(=O)CNC(=O)[C@H](CCCCN)NC(=O)[C@@H](NC(=O)[C@H](CO)NC(=O)[C@H](CC(C)C)NC(=O)[C@H](CCCNC(=N)N)NC(=O)[C@@H]2CCCN2C(=O)[C@H](CCCNC(=N)N)NC(=O)[C@@H]2CCC(=O)N2)CSSC[C@H](C(=O)N[C@@H](Cc2ccccc2)C(=O)O)NC1=O [Example 11, pE-R-P-R-L-S-C*-K-G-P-Nle-c*-F-OH] ([pGlu]RPRLSCKGP[Nle][dC]F-OH; disulfide 7-12) | 113 | 2.28 |
| CCCC[C@@H]1NC(=O)[C@@H]2CCCN2C(=O)CNC(=O)[C@H](CCCCN)NC(=O)[C@@H](NC(=O)[C@H](CO)NC(=O)[C@H](CC(C)C)NC(=O)[C@H](CCCNC(=N)N)NC(=O)[C@@H]2CCCN2C(=O)[C@H](CCCNC(=N)N)NC(=O)[C@@H]2CCC(=O)N2)CSSCC[C@@H](C(=O)N[C@@H](Cc2ccccc2)C(=O)O)NC1=O [Example 12, pE-R-P-R-L-S-C*-K-G-P-Nle-hC*-F-OH] ([pGlu]RPRLSCKGP[Nle][hCys]F-OH; disulfide 7-12) | 81.7 | 1.17 |
| CCCC[C@@H]1NC(=O)[C@@H]2CCCN2C(=O)CNC(=O)[C@H](CCCCN)NC(=O)[C@@H](NC(=O)[C@H](CO)NC(=O)[C@H](CC(C)C)NC(=O)[C@H](CCCNC(=N)N)NC(=O)[C@@H]2CCCN2C(=O)[C@H](CCCNC(=N)N)NC(=O)[C@@H]2CCC(=O)N2)CCSSCC[C@@H](C(=O)N[C@@H](Cc2ccccc2)C(=O)O)NC1=O [Example 13, pE-R-P-R-L-S-hC*-K-G-P-Nle-hC*-F-OH] ([pGlu]RPRLS[hCys]KGP[Nle][hCys]F-OH; disulfide 7-12) | 760 | 1.73 |
| CCCC[C@@H]1NC(=O)[C@@H]2CCCN2C(=O)[C@@H](NC(=O)[C@H](CCCCN)NC(=O)[C@@H](C)NC(=O)[C@H](CO)NC(=O)[C@H](CC(C)C)NC(=O)[C@H](CCCNC(=N)N)NC(=O)[C@@H]2CCCN2C(=O)[C@H](CCCNC(=N)N)NC(=O)[C@@H]2CCC(=O)N2)CSSC[C@@H](C(=O)N[C@H](Cc2ccccc2)C(=O)O)NC1=O [Example 16, pE-R-P-R-L-S-a-K-C*-P-Nle-C*-f-OH] ([pGlu]RPRLS[dA]KCP[Nle]C[dF]-OH; disulfide 9-12) | 33.2 | 5.38 |
| CCCC[C@@H]1NC(=O)[C@@H]2CCCN2C(=O)[C@@H](NC(=O)[C@H](CCCCN)NC(=O)[C@H](Cc2c[nH]cn2)NC(=O)[C@@H](C)NC(=O)[C@H](CC(C)C)NC(=O)[C@H](CCCNC(=N)N)NC(=O)[C@@H]2CCCN2C(=O)[C@H](CCCNC(=N)N)NC(=O)C2CCNCC2)CSSC[C@@H](C(=O)N[C@H](Cc2ccccc2)C(=O)O)NC1=O [Example 18, Isonipecotoyl-R-P-R-L-a-H-K-C*-P-Nle-C*-f-OH] (H-[Inp]RPRL[dA]HKCP[Nle]C[dF]-OH; disulfide 9-12) | 2.3 | 16.5 |
| CCCC[C@@H]1NC(=O)[C@@H]2CCCN2C(=O)[C@@H](NC(=O)[C@H](CCCCN)NC(=O)C(C)(C)NC(=O)[C@@H](C)NC(=O)[C@H](CC(C)C)NC(=O)[C@H](CCCNC(=N)N)NC(=O)[C@@H]2CCCN2C(=O)[C@H](CCCNC(=N)N)NC(=O)[C@@H]2CCC(=O)N2)CSSC[C@@H](C(=O)N[C@H](Cc2ccccc2)C(=O)O)NC1=O [Example 19, pE-R-P-R-L-a-Aib-K-C*-P-Nle-C*-f-OH] ([pGlu]RPRL[dA][Aib]KCP[Nle]C[dF]-OH; disulfide 9-12) | 72.3 | 36.4 |
| CCCC[C@@H]1NC(=O)[C@@H]2CCCN2C(=O)[C@@H](NC(=O)[C@H](CCCCN)NC(=O)C(C)(C)NC(=O)[C@H](CO)NC(=O)[C@H](CC(C)C)NC(=O)[C@H](CCCNC(=N)N)NC(=O)[C@@H]2CCCN2C(=O)[C@H](CCCNC(=N)N)NC(=O)[C@@H]2CCC(=O)N2)CSSC[C@@H](C(=O)N[C@H](Cc2ccccc2)C(=O)O)NC1=O [Example 20, pE-R-P-R-L-S-Aib-K-C*-P-Nle-C*-f-OH] ([pGlu]RPRLS[Aib]KCP[Nle]C[dF]-OH; disulfide 9-12) | 6.1 | 5.52 |
